Data: patent US7273848B2, “Apolipoprotein A-I agonists and their use to treat dyslipidemic disorders” (priority 1997, dated 2007)
Non-standard residues stand in square brackets, D forms with d. Residues, ends and D or L forms follow the SMILES beside them. No end group written: not given here. Aib = CC(C)(N)C(=O)O

The compounds below were run against T1, LCAT (purified from human plasma) (Homo sapiens, UniProt P04180) (assay: LCAT activation assay). Conditions: LCAT activation as compared with native human ApoA-I (= 100%), equivalent masses.
T1 construct: from tissue; host or cells: human plasma
T1 sequence (P04180 25-440): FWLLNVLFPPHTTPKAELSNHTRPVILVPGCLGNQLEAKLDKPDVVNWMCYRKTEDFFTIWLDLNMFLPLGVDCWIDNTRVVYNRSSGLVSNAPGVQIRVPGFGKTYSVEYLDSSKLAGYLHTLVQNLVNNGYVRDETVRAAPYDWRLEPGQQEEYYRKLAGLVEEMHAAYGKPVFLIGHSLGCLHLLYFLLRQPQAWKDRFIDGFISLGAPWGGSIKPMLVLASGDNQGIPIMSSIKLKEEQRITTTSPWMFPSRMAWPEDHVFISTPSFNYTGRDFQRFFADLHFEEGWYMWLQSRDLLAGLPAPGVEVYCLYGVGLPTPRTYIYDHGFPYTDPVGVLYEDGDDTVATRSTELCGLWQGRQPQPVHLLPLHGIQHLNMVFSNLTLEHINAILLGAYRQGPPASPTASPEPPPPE
Type: biochemical
Protocol: The peptides synthesized as described in Section 6, supra, were analyzed in vitro for their ability to activate LCAT. In the LCAT assay, substrate vesicles (small unilamellar vesicles or “SUVs”) composed of egg phophatidylcholine (EPC) or 1-Palmitoyl-2-oleyl-phosphatidyl-choline (POPC) and radiolabelled cholesterol are preincubated with equivalent masses either of peptide or ApoA-I (isolated from human plasma). The reaction is initiated by addition of LCAT (purified from human plasma). Native ApoA-I, which was used as positive control, represents 100% activation activity. “Specific activity” (i.e., units of activity (LCAT activation)/unit of mass) of the peptides can be calculated as the concentration of peptide that achieves maximum LCAT activation. For example, a series of concentrations of the peptide (e.g., a limiting dilution) can be assayed to determine the “specific activity” for the peptide—the concentration which achieves maximal LCAT activation (i.e., percentage conversion of cholesterol to cholesterol ester) at a specific timepoint in the assay (e.g., 1 hr.). When plotting percentage conversion of cholesterol at, e.g., 1 hr., against the concentration of peptide used, the “specific activity” can be identified as the concentration of peptide that achieves a plateau on the plotted curve.
The vesicles used in the LCAT assay are SUVs composed of egg phosphatidylcholine (EPC) or 1-palmitoyl-2-oleyl-phosphatidylcholine (POPC) and cholesterol with a molar ratio of 20:1. To prepare a vesicle stock solution sufficient for 40 assays, 7.7 mg EPC (or 7.6 mg POPC; 10 μmol), 78 μg (0.2 μmol) 4-^14C-cholesterol, 116 μg cholesterol (0.3 μmol) are dissolved in 5 ml xylene and lyophilized. Thereafter 4 ml of assay buffer is added to the dry powder and sonicated under nitrogen atmosphere at 4° C. Sonication conditions: Branson 250 sonicator, 10 mm tip, 6×5 minutes; Assay buffer: 10 mM Tris, 0.14 M NaCl, 1 mM EDTA, pH 7.4). The sonicated mixture is centrifuged 6 times for 5 minutes each time at 14,000 rpm (16,000×g) to remove titanium particles. The resulting clear solution is used for the enzyme assay.
For the LCAT purification, dextran sulfate/Mg^2+ treatment of human plasma is used to obtain lipoprotein deficient serum (LPDS), which is sequentially chromatographed on Phenylsepharose, Affigelblue, ConcanavalinA sepharose and anti-ApoA-I affinity chromatography, as summarized for a representative purification in TABLE IX, below: […]

Row | Compound | ACTIVITY (%) LCAT [%]
1 | CC(C)C[C@@H](NC(=O)[C@@H](C)NC(=O)[C@@H](CC(=O)O)NC(=O)[C@@H](CC(C)C)NC(=O)[C@@H](CC(C)C)NC(=O)[C@@H](CCCNC(=N)N)NC(=O)[C@@H](CCC(=O)O)NC(=O)[C@@H](CC(C)C)NC(=O)[C@@H](CC(C)C)NC(=O)[C@@H](CC(N)=O)NC(=O)[C@@H](CCC(=O)O)NC(=O)[C@@H](Cc1ccccc1)NC(=O)[C@@H](CC(C)C)NC(=O)[C@@H](CCC(=O)O)NC(=O)[C@@H](CC(C)C)NC(=O)[C@H](NC(=O)[C@H]1CCCN1)C(C)C)C(=O)N[C@H](CCC(N)=O)C(=O)N[C@H](CCCCN)C(=O)N[C@H](CCCCN)C(=O)N[C@H](CC(C)C)C(=O)N[C@H](CCCCN)C(=O)O [compound 174, pvlelfenllerlldalqkklk] (H-[dP][dV][dL][dE][dL][dF][dE][dN][dL][dL][dE][dR][dL][dL][dD][dA][dL][dQ][dK][dK][dL][dK]-OH) | 13
2 | PVLDLFRELLNEELEALKQKLK [compound 98] | 2
3 | CC(C)C[C@H](NC(=O)CNC(=O)[C@H](CCC(=O)O)NC(=O)[C@H](CC(N)=O)NC(=O)[C@H](CC(C)C)NC(=O)[C@H](CC(C)C)NC(=O)[C@H](CCC(=O)O)NC(=O)[C@H](CCCNC(=N)N)NC(=O)[C@H](Cc1ccccc1)NC(=O)[C@H](CC(C)C)NC(=O)[C@H](CC(=O)O)NC(=O)[C@H](CC(C)C)NC(=O)[C@@H](NC(=O)[C@H]1CCCN1)C(C)C)C(=O)N[C@@H](CCC(=O)O)C(=O)N[C@@H](C)C(=O)N[C@@H](CC(C)C)C(=O)N[C@@H](CCCCN)C(=O)N[C@@H](CCC(N)=O)C(=O)N[C@@H](CCCCN)C(=O)N[C@@H](CC(C)C)C(=O)N[C@@H](CCCCN)C(=O)O [compound 19] (H-[dP]VLDLFRELLNEGLEALKQKLK-OH) | 58
4 | CC(C)C[C@H](NC(=O)[C@H](C)NC(=O)[C@H](CCC(=O)O)NC(=O)C(C)(C)NC(=O)[C@H](CC(C)C)NC(=O)[C@H](CCC(=O)O)NC(=O)[C@H](CC(N)=O)NC(=O)[C@H](CC(C)C)NC(=O)[C@H](CCCCN)NC(=O)[C@H](CCC(=O)O)NC(=O)[C@H](CCCNC(=N)N)NC(=O)[C@H](Cc1ccccc1)NC(=O)[C@H](CCC(=O)O)NC(=O)[C@H](CC(=O)O)NC(=O)[C@H](CC(C)C)NC(=O)[C@@H](NC(=O)[C@@H]1CCCN1)C(C)C)C(=O)N[C@@H](CCCCN)C(=O)N[C@@H](CCC(N)=O)C(=O)N[C@@H](CCCCN)C(=O)N[C@@H](CC(C)C)C(=O)N[C@@H](CCCCN)C(=O)O [compound 71, PVLDEFREKLNELXEALKQKLK] (H-PVLDEFREKLNEL[Aib]EALKQKLK-OH) | 11
5 | Ac-NVLDLFRELLEELKQKLK-NH2 [compound 200] | 75
6 | PVLDLFREKLNELLEALKQKLK [compound 33] | 33
7 | PVLDEFRELLNELLEALKQKLK [compound 79] | 9
8 | CC(C)C[C@H](NC(=O)[C@H](C)NC(=O)[C@H](CCC(=O)O)NC(=O)[C@H](CC(C)C)NC(=O)C(C)(C)NC(=O)[C@H](CCC(=O)O)NC(=O)[C@H](CC(N)=O)NC(=O)[C@H](CC(C)C)NC(=O)[C@H](CC(C)C)NC(=O)[C@H](CCC(=O)O)NC(=O)[C@H](CCCNC(=N)N)NC(=O)[C@H](Cc1ccccc1)NC(=O)[C@H](CCCCN)NC(=O)[C@H](CC(=O)O)NC(=O)[C@H](CC(C)C)NC(=O)[C@@H](NC(=O)[C@@H]1CCCN1)C(C)C)C(=O)N[C@@H](CCCCN)C(=O)N[C@@H](CCC(N)=O)C(=O)N[C@@H](CCCCN)C(=O)N[C@@H](CC(C)C)C(=O)N[C@@H](CCCCN)C(=O)O [compound 88, PVLDKFRELLNEXLEALKQKLK] (H-PVLDKFRELLNE[Aib]LEALKQKLK-OH) | 7
9 | CC(C)C[C@H](NC(=O)[C@H](C)NC(=O)[C@H](CCC(=O)O)NC(=O)[C@H](CC(C)C)NC(=O)[C@H](CC(C)C)NC(=O)[C@H](CCC(=O)O)NC(=O)[C@H](CC(N)=O)NC(=O)[C@H](CC(C)C)NC(=O)[C@H](CC(C)C)NC(=O)[C@H](CCC(=O)O)NC(=O)[C@H](CCCNC(=N)N)NC(=O)[C@H](Cc1ccccc1)NC(=O)[C@H](CC(C)C)NC(=O)[C@H](CC(=O)O)NC(=O)[C@H](CC(C)C)NC(=O)[C@@H](NC(=O)[C@H]1CCCN1)C(C)C)C(=O)N[C@@H](CCCCN)C(=O)N[C@@H](CCC(N)=O)C(=O)N[C@@H](CCCCN)C(=O)N[C@@H](CC(C)C)C(=O)N[C@@H](CCCCN)C(=O)O [compound 21] | 57
10 | CC(C)C[C@H](NC(=O)[C@H](CCCCN)NC(=O)[C@H](CCC(N)=O)NC(=O)[C@H](CCCCN)NC(=O)[C@H](CC(C)C)NC(=O)[C@H](C)NC(=O)[C@H](CCC(=O)O)NC(=O)[C@H](CC(C)C)NC(=O)C(C)(C)NC(=O)[C@H](CCC(=O)O)NC(=O)[C@H](CC(N)=O)NC(=O)[C@H](CC(C)C)NC(=O)[C@H](CCCCN)NC(=O)[C@H](CCC(=O)O)NC(=O)[C@H](CCCNC(=N)N)NC(=O)[C@H](Cc1ccccc1)NC(=O)[C@H](CCC(=O)O)NC(=O)[C@H](CC(=O)O)NC(=O)[C@H](CC(C)C)NC(=O)[C@@H](NC(=O)[C@@H]1CCCN1)C(C)C)C(=O)O [compound 58, PVLDEFREKLNEXLEALKQKL~] (H-PVLDEFREKLNE[Aib]LEALKQKL-OH) | 18
11 | PVLDLLRELLNELLEALKQKLK [compound 16] | 59
12 | Ac-GVLDLFRELLEELKQKLK-NH2 [compound 198] | 80
13 | Ac-PVLDFFRELLEELKQKLK-NH2 [compound 204] | 63
14 | Ac-AVLDLFRELLEELKQKLK-NH2 [compound 203] | 66
15 | CC(C)C[C@H](NC(=O)[C@H](C)NC(=O)[C@H](CCC(=O)O)NC(=O)[C@H](CC(C)C)NC(=O)C(C)(C)NC(=O)[C@H](CCC(=O)O)NC(=O)[C@H](CC(N)=O)NC(=O)[C@H](CC(C)C)NC(=O)[C@H](CCCCN)NC(=O)[C@H](CCC(=O)O)NC(=O)[C@H](CCCNC(=N)N)NC(=O)[C@H](Cc1ccccc1)NC(=O)[C@H](CCC(=O)O)NC(=O)[C@H](CC(=O)O)NC(=O)[C@H](CC(C)C)NC(=O)[C@H](Cc1c[nH]c2ccccc12)NC(=O)[C@@H]1CCCN1)C(=O)N[C@@H](CCCCN)C(=O)N[C@@H](CCC(N)=O)C(=O)N[C@@H](CCCCN)C(=O)N[C@@H](CC(C)C)C(=O)N[C@@H](CCCCN)C(=O)O [compound 64, PWLDEFREKLNEXLEALKQKLK] (H-PWLDEFREKLNE[Aib]LEALKQKLK-OH) | 15
16 | Ac-PLLDLFKELLEELKQKLK-NH2 [compound 201] | 74

Further lines, results first:

Row | ACTIVITY (%) LCAT [%] | Compound
17 | 0 | Ac-PVLDLFRELLEEGKQKLK-NH2 [compound 229]
18 | 4 | PVLELFLNLLERLLDAWQKKLK [compound 184]
19 | 22 | PVLELFLNLLEKLLDALQKKLK [compound 166]
20 | 0 | CC(C)C[C@H](NC(=O)[C@H](C)NC(=O)[C@H](CCC(=O)O)NC(=O)[C@H](Cc1c[nH]c2ccccc12)NC(=O)C(C)(C)NC(=O)[C@H](CCC(=O)O)NC(=O)[C@H](Cc1c[nH]c2ccccc12)NC(=O)[C@H](CC(C)C)NC(=O)[C@H](CCCCN)NC(=O)[C@H](CCC(=O)O)NC(=O)[C@H](CCCNC(=N)N)NC(=O)[C@H](Cc1ccccc1)NC(=O)[C@H](CCC(=O)O)NC(=O)[C@H](CC(=O)O)NC(=O)[C@H](CC(C)C)NC(=O)[C@@H](NC(=O)[C@@H]1CCCN1)C(C)C)C(=O)N[C@@H](CCCCN)C(=O)N[C@@H](CCC(N)=O)C(=O)N[C@@H](CCCCN)C(=O)N[C@@H](CC(C)C)C(=O)N[C@@H](CCCCN)C(=O)O [compound 111, PVLDEFREKLWEXWEALKQKLK] (H-PVLDEFREKLWE[Aib]WEALKQKLK-OH)
21 | 8 | PVLDLFREGWEELKQKLK [compound 224]
22 | 60 | Ac-PVLDLFREWLEELKQKLK-NH2 [compound 205]
23 | 8 | DWFKAFYDKVFEKFKEFF [peptide 241, reference compound]
